Laboratory results: ChEMBL document CHEMBL1629583, “Establishment of in vitro susceptibility testing methodologies and comparative activities of piperacillin in combination with the penem {beta}-lactamase inhibitor BLI-489” (2009)
Converted amounts (≈) assume the structure as drawn.

Legend:
Assay type in all cases: functional
Streptococcus pneumoniae [1] = assay: Antimicrobial activity against penicillin-intermediate Streptococcus pneumoniae clinical isolate after 18 to 22 hrs by broth microdilution method
Staphylococcus aureus [2] = assay: Antimicrobial activity against methicillin-resistant Staphylococcus aureus clinical isolate after 18 to 22 hrs by broth microdilution method
Enterococcus faecalis [3] = assay: Antimicrobial activity against vancomycin-resistant Enterococcus faecalis clinical isolate after 18 to 22 hrs by broth microdilution method
Streptococcus agalactiae = assay: Antimicrobial activity against Streptococcus agalactiae clinical isolate after 18 to 22 hrs by broth microdilution method
Enterococcus hirae = assay: Antimicrobial activity against Enterococcus hirae clinical isolate after 18 to 22 hrs by broth microdilution method
Enterococcus durans = assay: Antimicrobial activity against Enterococcus durans clinical isolate after 18 to 22 hrs by broth microdilution method
Streptococcus pneumoniae [4] = assay: Antimicrobial activity against penicillin-resistant Streptococcus pneumoniae clinical isolate after 18 to 22 hrs by broth microdilution method
Enterococcus avium = assay: Antimicrobial activity against Enterococcus avium clinical isolate after 18 to 22 hrs by broth microdilution method
Enterococcus gallinarum = assay: Antimicrobial activity against Enterococcus gallinarum clinical isolate after 18 to 22 hrs by broth microdilution method
[5] = test system: Staphylococcus epidermidis; assay: Antimicrobial activity against methicillin-resistant Staphylococcus epidermidis clinical isolate after 18 to 22 hrs by broth microdilution method
Enterococcus faecium [6] = assay: Antimicrobial activity against Enterococcus faecium clinical isolate after 18 to 22 hrs by broth microdilution method
Streptococcus pyogenes = assay: Antimicrobial activity against Streptococcus pyogenes clinical isolate after 18 to 22 hrs by broth microdilution method
Staphylococcus aureus [7] = assay: Antimicrobial activity against methicillin-susceptible Staphylococcus aureus clinical isolate after 18 to 22 hrs by broth microdilution method
[8] = test system: Staphylococcus haemolyticus; assay: Antimicrobial activity against Staphylococcus haemolyticus clinical isolate after 18 to 22 hrs by broth microdilution method
Streptococcus pneumoniae [9] = assay: Antimicrobial activity against penicillin-susceptible Streptococcus pneumoniae clinical isolate after 18 to 22 hrs by broth microdilution method
Enterococcus faecium [10] = assay: Antimicrobial activity against vancomycin-resistant Enterococcus faecium clinical isolate after 18 to 22 hrs by broth microdilution method
[11] = test system: Staphylococcus epidermidis; assay: Antimicrobial activity against methicillin-susceptible Staphylococcus epidermidis clinical isolate after 18 to 22 hrs by broth microdilution method
Enterococcus faecalis [12] = assay: Antimicrobial activity against Enterococcus faecalis clinical isolate after 18 to 22 hrs by broth microdilution method
[13] = test system: Enterococcus casseliflavus; assay: Antimicrobial activity against Enterococcus casseliflavus clinical isolate after 18 to 22 hrs by broth microdilution method
Bacteroides fragilis = assay: Antimicrobial activity against Bacteroides fragilis clinical isolate after 18 to 22 hrs by broth microdilution method
Parvimonas micra = assay: Antimicrobial activity against Peptostreptococcus micros clinical isolate after 18 to 22 hrs by broth microdilution method
Bacteroides uniformis = assay: Antimicrobial activity against Bacteroides uniformis clinical isolate after 18 to 22 hrs by broth microdilution method
Clostridium perfringens = assay: Antimicrobial activity against Clostridium perfringens clinical isolate after 18 to 22 hrs by broth microdilution method
[14] = test system: Peptostreptococcus anaerobius; assay: Antimicrobial activity against Peptostreptococcus anaerobius clinical isolate after 18 to 22 hrs by broth microdilution method
[15] = test system: Bacteroides thetaiotaomicron; assay: Antimicrobial activity against Bacteroides thetaiotaomicron clinical isolate after 18 to 22 hrs by broth microdilution method

Compound `CN[C@H](CC(C)C)C(=O)N[C@H]1C(=O)N[C@@H](CC(N)=O)C(=O)N[C@H]2C(=O)N[C@H]3C(=O)N[C@H](C(=O)N[C@H](C(=O)O)c4cc(O)cc(O)c4-c4cc3ccc4O)[C@H](O)c3ccc(c(Cl)c3)Oc3cc2cc(c3O[C@@H]2O[C@H](CO)[C@@H](O)[C@H](O)[C@H]2O[C@H]2C[C@](C)(N)[C@H](O)[C@H](C)O2)Oc2ccc(cc2Cl)[C@H]1O` [VANCOMYCIN] has an MIC50 (Streptococcus pneumoniae [1]) of 0.25 mg/L (≈ 0.173 µM), an MIC90 (Streptococcus pneumoniae [1]) of 0.25 mg/L (≈ 0.173 µM) and an MIC50 (Staphylococcus aureus [2]) of 1 mg/L (≈ 0.69 µM). The MIC90 (Staphylococcus aureus [2]) was 1 mg/L (≈ 0.69 µM), the MIC50 (Enterococcus faecalis [3]) was > 32 mg/L and the MIC90 (Enterococcus faecalis [3]) was > 32 mg/L. The MIC (Streptococcus agalactiae) was 0.25 mg/L (≈ 0.173 µM), the MIC50 (Streptococcus agalactiae) was 0.25 mg/L (≈ 0.173 µM) and the MIC90 (Streptococcus agalactiae) was 0.5 mg/L (≈ 0.345 µM). For the same compound, the MIC50 (Enterococcus hirae) was 0.5 mg/L (≈ 0.345 µM), the MIC90 (Enterococcus hirae) was 4 mg/L (≈ 2.76 µM) and the MIC50 (Enterococcus durans) was 0.5 mg/L (≈ 0.345 µM). The MIC90 (Enterococcus durans) was 4 mg/L (≈ 2.76 µM), the MIC50 (Streptococcus pneumoniae [4]) was 0.25 mg/L (≈ 0.173 µM) and the MIC90 (Streptococcus pneumoniae [4]) was 0.25 mg/L (≈ 0.173 µM). The MIC (Enterococcus avium) was 0.25 mg/L (≈ 0.173 µM), the MIC50 (Enterococcus avium) was 0.25 mg/L (≈ 0.173 µM) and the MIC90 (Enterococcus avium) was 0.5 mg/L (≈ 0.345 µM). The MIC50 (Enterococcus gallinarum) was 0.5 mg/L (≈ 0.345 µM), the MIC90 (Enterococcus gallinarum) was 4 mg/L (≈ 2.76 µM) and the MIC50 [5] was 2 mg/L (≈ 1.38 µM). The MIC90 [5] was 2 mg/L (≈ 1.38 µM), the MIC50 (Enterococcus faecium [6]) was 0.5 mg/L (≈ 0.345 µM) and the MIC90 (Enterococcus faecium [6]) was 1 mg/L (≈ 0.69 µM). It also gave an MIC50 (Streptococcus pyogenes) of 0.25 mg/L (≈ 0.173 µM), an MIC90 (Streptococcus pyogenes) of 0.25 mg/L (≈ 0.173 µM) and an MIC50 (Staphylococcus aureus [7]) of 0.5 mg/L (≈ 0.345 µM). For the same compound, the MIC90 (Staphylococcus aureus [7]) was 1 mg/L (≈ 0.69 µM), the MIC50 [8] was 1 mg/L (≈ 0.69 µM) and the MIC90 [8] was 1 mg/L (≈ 0.69 µM). The MIC50 (Streptococcus pneumoniae [9]) was 0.12 mg/L (≈ 0.0828 µM), the MIC90 (Streptococcus pneumoniae [9]) was 0.25 mg/L (≈ 0.173 µM) and the MIC (Enterococcus faecium [10]) was > 32 mg/L. The MIC50 (Enterococcus faecium [10]) was > 32 mg/L, the MIC90 (Enterococcus faecium [10]) was > 32 mg/L and the MIC50 [11] was 1 mg/L (≈ 0.69 µM). It also gave an MIC90 [11] of 1 mg/L (≈ 0.69 µM), an MIC50 (Enterococcus faecalis [12]) of 1 mg/L (≈ 0.69 µM) and an MIC90 (Enterococcus faecalis [12]) of 2 mg/L (≈ 1.38 µM). For the same compound, the MIC50 [13] was 0.5 mg/L (≈ 0.345 µM) and the MIC90 [13] was 4 mg/L (≈ 2.76 µM).

`CO[C@@]1(NC(=O)Cc2cccs2)C(=O)N2C(C(=O)O)=C(COC(N)=O)CS[C@@H]21` [CEFOXITIN] showed an MIC50 (Bacteroides fragilis) of 8 mg/L (≈ 18.7 µM), an MIC90 (Bacteroides fragilis) of 16 mg/L (≈ 37.4 µM) and an MIC50 (Parvimonas micra) of 0.5 mg/L (≈ 1.17 µM). It also gave an MIC90 (Parvimonas micra) of 0.5 mg/L (≈ 1.17 µM), an MIC50 (Bacteroides uniformis) of 16 mg/L (≈ 37.4 µM) and an MIC90 (Bacteroides uniformis) of 16 mg/L (≈ 37.4 µM). It also gave an MIC50 (Clostridium perfringens) of 1 mg/L (≈ 2.34 µM), an MIC90 (Clostridium perfringens) of 2 mg/L (≈ 4.68 µM) and an MIC50 [14] of 0.25 mg/L (≈ 0.585 µM). It also gave an MIC90 [14] of 1 mg/L (≈ 2.34 µM), an MIC [15] of 16 mg/L (≈ 37.4 µM) and an MIC50 [15] of 16 mg/L (≈ 37.4 µM). The MIC90 [15] was 32 mg/L (≈ 74.9 µM).
